Source: publication PMC7017153, “Assembly of a G-Quadruplex Repair Complex by the FANCJ DNA Helicase and the REV1 Polymerase” (Genes, 2019)
“Also recorded” adds a separate entry of the source. Where no end group is shown, it is not given here. The star is where a group is joined. Biotin = O=C1N[C@H]2[C@H](CS[C@H]2CCCCC(=O)*)N1

Experiments:
[1] = Circular dichroism (CD) of G4 DNA in NaCl; assay type: physicochemical; settings: 150 mM NaCl, 25 °C, 320-220 nm
Experimental: (§1) CD measurements were collected on a JASCO J-810 spectropolarimeter (JASCO Inc., Easton, MD, USA) equipped with a PTC-423S peltier system. G4 DNA samples were dialyzed into 20 mM Boric Acid pH 7.5, 150 mM KCl (or NaCl). CD spectra were collected from 320 nm to 220 nm at 25 °C. Five traces were obtained for each DNA substrate, and a reference scan of the buffer alone was subtracted from the averaged CD signal.

[2] = Circular dichroism (CD) of G4 DNA in KCl; assay type: physicochemical; settings: 20 mM boric acid pH 7.5, 150 mM KCl, 25 °C, 320-220 nm
Experimental: as §1

[3] = system: human REV1 CTD (amino acid residues 1157 to 1251); experiment: BLI, biotinylated FANCJ PIP peptides with REV1 CTD; assay type: binding; settings: Buffer H, 25 °C; for BLI binding signal (Δλ), REV1 CTD versus PCNA: 1.3 µM PCNA trimer
Excerpt: (§2) The pEB022 plasmid used to produce full-length human PCNA protein was kindly provided by Dr. M. Todd Washington (University of Iowa). A codon-optimized construct (VB170525-1265 nra) used to express human REV1 CTD (amino acid residues 1157 to 1251) in E. coli was synthesized by VectorBuilder Inc. (Chicago, IL, USA). Plasmids were transformed into NiCo21(DE3) competent cells from New England Biolabs (Ipswich, MA, USA). Single bacteria colonies were selected on LB agar plates that were supplemented with 50 µg/mL of kanamycin (PCNA) or carbenicillin (REV1 CTD) to inoculate starter cultures in LB broth. Overnight growths were diluted 1:50 into 4 × 1L LB (37 °C, 250 rpm). Protein expression was induced by adding IPTG to 1 mM when the optical density at 600 nm reached 0.4 absorbance units. Cells were cultured overnight at 16 °C. They were harvested 16 h post induction by centrifugation (6000 × g at 4 °C) for 60 min, and the pellets were resuspended in 20 mM NaPi (pH 7.5), 300 mM NaCl, 30 mM imidazole, 1 mM DTT, 5% (v/v) glycerol, 1% NP-40, and 1 mM PMSF.
(§3) BLI assays were performed on a BLItz instrument (Pall Fortébio, Fremont, CA, USA). Streptavidin-coated biosensors were purchased from Pall Fortébio (Lot 1906281). Biosensors were hydrated in Buffer H for 10 min, and the baseline optical interference was recorded. A total of 150 nM of biotinylated G4 DNA or FANCJ PIP peptide was loaded onto the sensors over 2 min, after which they were washed with Buffer H. Binding reactions were initiated by placing the biosensors in analyte solutions at the indicated concentrations. After their interactions had reached an equilibrium, the sensors were returned to buffer to monitor dissociation of the complexes. Experiments were repeated in triplicate. BLI binding isotherms were generated by plotting the plateau values of the association phase versus total analyte concentration. These curves were fit to a 1:1 interaction model, as described above. The parameters reported were obtained from the average and 95% confidence interval of the three data sets.
PIP-containing proteins bind directly to PCNA to coordinate DNA replication and repair. However, it is now evident that noncanonical PIP-boxes can serve as hotspots to recruit other proteins, including the REV1 translesion synthesis polymerase and the MLH1 mismatch repair protein [54, 55, 56, 64]. To test if the PIP-like motif in FANCJ functions as a PIP or an REV1-interacting region (RIR), we compared how this peptide bound to PCNA versus REV1 by BLI. Recombinant human PCNA protein and the C-terminal domain (CTD) of human REV1 were purified from E. coli (Figure S3A). Biotinylated FANCJ PIP was immobilized on a streptavidin-coated biosensor and experiments were performed as described above. […] Because Δλ is related to the thickness of the biolayer, this value reports the accumulation of mass on the sensor tip. […] This difference is further magnified as REV1 CTD has a molecular mass of ~12 kDa, while a human PCNA trimer is about seven times its size, at ~86 kDa. Next, we tested the effects of a FANCJ PIP AA peptide on its interactions with REV1 CTD and PCNA. The consecutive consensus aromatic residues (YF) within the potential PIP-motif were replaced with alanine amino acids (AA). […] BLI experiments with PIP and PIP AA were repeated as a function of REV1 CTD and PCNA concentration to measure their corresponding equilibrium constant values.

full-length human PCNA = experiment: BLI, biotinylated FANCJ PIP peptides with PCNA; assay type: binding; settings: Buffer H, 25 °C; for Binding to PCNA: BLI
Excerpt: as §2, §3
PIP-containing proteins bind directly to PCNA to coordinate DNA replication and repair. However, it is now evident that noncanonical PIP-boxes can serve as hotspots to recruit other proteins, including the REV1 translesion synthesis polymerase and the MLH1 mismatch repair protein [54, 55, 56, 64]. To test if the PIP-like motif in FANCJ functions as a PIP or an REV1-interacting region (RIR), we compared how this peptide bound to PCNA versus REV1 by BLI. Recombinant human PCNA protein and the C-terminal domain (CTD) of human REV1 were purified from E. coli (Figure S3A). Biotinylated FANCJ PIP was immobilized on a streptavidin-coated biosensor and experiments were performed as described above. […]

bioFANCJ PIP AA (human) = experiment: BLI; 150 nM biotinylated FANCJ PIP or PIP AA peptide loaded on streptavidin biosensors (BLItz); REV1 CTD (1.8 uM) or PCNA trimer (1.3 uM) as analyte, also as a function of analyte concentration; Buffer H (20 mM HEPES pH 7.5, 150 mM KCl, 5 mM TCEP, 5% glycerol), 25 C; plateau values fit to a 1:1 model
[4] = target: T1, full-length human PCNA protein (human, UniProt P12004 1-261); experiment: as above; settings: both partners purified
T1 construct: PCNA sliding clamp, human, full length; made from plasmid pEB022; also called PCNA trimer; source: E. coli NiCo21(DE3), purified (Ni2+ IMAC, heparin)
T1 sequence (P12004 whole entry): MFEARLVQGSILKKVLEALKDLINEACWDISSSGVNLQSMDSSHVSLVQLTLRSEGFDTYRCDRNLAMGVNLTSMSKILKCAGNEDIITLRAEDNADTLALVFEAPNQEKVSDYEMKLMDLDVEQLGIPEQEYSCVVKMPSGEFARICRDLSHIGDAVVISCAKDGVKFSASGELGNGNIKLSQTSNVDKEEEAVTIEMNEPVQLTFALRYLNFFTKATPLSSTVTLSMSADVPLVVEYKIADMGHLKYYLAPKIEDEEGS

[5] = target: T2, human REV1 CTD (amino acid residues 1157 to 1251) (human, UniProt Q9UBZ9 1157-1251); experiment: as above; settings: both partners purified
T2 construct: REV1 translesion DNA synthesis polymerase, human, C-terminal domain, residues 1157-1251; codon-optimized construct; also called C-terminal domain (CTD) of human REV1; source: E. coli NiCo21(DE3), purified (Ni2+ IMAC, heparin)
T2 sequence (looked up): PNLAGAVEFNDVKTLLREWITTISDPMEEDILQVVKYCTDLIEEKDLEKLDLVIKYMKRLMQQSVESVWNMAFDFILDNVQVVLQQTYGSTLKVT

[6] = BLI isotherms, PIP AA versus wild-type PIP
[7] = biotinylated peptide 150 nM, 1.8 µM REV1 CTD

For “(TTAGGG)4: human telomeric G4 DNA, TTAGGGTTAGGGTTAGGGTTAGGG”, which “G4 conformation by CD (NaCl)” value [1] is on record?
The value was “adopted an anti-parallel configuration in NaCl buffer”.

And the “G4 conformation by CD (KCl)” value [2]?
The value was “folded into a hybrid conformation”.

What does the source list for “Biotin-SWSSFNSLGQAATGKIP [FANCJ PIP AA, Biotin-…, YF replaced with AA]”?
Change in affinity for REV1 CTD by PIP AA mutation [3, 6]: small increase in affinity for REV1 CTD; BLI binding signal (Δλ), REV1 CTD versus PCNA [3, 7]: more REV1 CTD bound to the mutant peptide versus PCNA; BLI binding signal, PIP AA versus wild-type PIP, REV1 CTD [3, 7]: larger binding signals compared to the wild-type PIP sequence for REV1 CTD; Change in affinity (binding constant) for PCNA by PIP AA mutation (full-length human PCNA; [6]): binding of PCNA was weakened twofold; also recorded: reduced the binding constant for PCNA by half; Binding to PCNA (full-length human PCNA): still retained residual interactions with PCNA; BLI binding signal, PIP AA versus wild-type PIP, PCNA (full-length human PCNA; biotinylated peptide 150 nM, 1.3 µM PCNA trimer): larger binding signals compared to the wild-type PIP sequence

Which “Binding to REV1 CTD” value ([3]; BLI) does the source give for “Biotin-SWSSFNSLGQYFTGKIP [FANCJ PIP, Biotin-…, FANCJ amino acids 1001–1017]” here?
The value was “bound to REV1 CTD”.

What about the “BLI binding signal (Δλ), REV1 CTD versus PCNA” value [3, 7] of the same molecule?
Its value is “REV1 CTD produced a larger binding signal than PCNA at similar molar concentrations of protein; also recorded: Interactions with REV1 CTD, however, produced a stronger binding signal than PCNA”.

And the “Binding to PCNA” value (full-length human PCNA)?
The value was “bound to REV1 CTD and to PCNA”.

Which fold weakening of the equilibrium constant against wild-type FANCJ PIP (bioFANCJ PIP AA (human)) does the source give for “full-length human PCNA protein (from UniProt P12004 1-261)” here?
Its fold weakening of the equilibrium constant against wild-type FANCJ PIP is 2 fold.

B1: bioFANCJ PIP (peptide)
peptide: Biotin-SWSSFNSLGQYFTGKIP
notes: FANCJ helicase, human, PIP-like motif, amino acids 1001-1017; Held on streptavidin biosensors by the N-terminal biotin; also called biotinylated FANCJ PIP; wild-type PIP; source: synthetic peptide (Genscript)
Does B1 bind [4]?
Result: binds

Does B1 bind [5]?
Result: binds
